# Measured values taken from paper PMC6087734, “Loss of S100A1 expression leads to Ca^2+ release potentiation in mutant mice with disrupted CaM and S100A1 binding to CaMBD2 of RyR1” (Physiological Reports, 2018).
# “Also recorded” adds a separate entry of the source. Residues, ends and D or L forms follow the SMILES beside them.
# T1: S100A1 (recombinant human 15N-labeled, Ca2+-loaded) (Homo sapiens, UniProt P23297)
# T1 construct: made in house
# T1 sequence (P23297 1-94): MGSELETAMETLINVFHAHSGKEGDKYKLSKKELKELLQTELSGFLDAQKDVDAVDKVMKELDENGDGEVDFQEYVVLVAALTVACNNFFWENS
# B1: S100A1, P23297 (protein)
# chain: T1 sequence (P23297 1-94)
# B2: S100A1: 21 kDa dimeric molecule characterized by its EF‐hand Ca^2+‐binding motifs (protein, UniProt P23297 1-94, looked up)
# Protein S100-A1: T1 sequence (P23297 1-94)
# Columns and labels:
# [1] = biological target: T1, S100A1 (recombinant human 15N-labeled, Ca2+-loaded); assay: ITC of S100A1 association with RyR1 CaMBD peptides; format: binding; settings: for S100A1 binding, in words: 10 mmol/L Ca2+; for N (sites) / Kd / ΔG / ΔH: 37°C, two-site fit, mean ± SD, n = 3; for difference in affinity between the tight and weak peptide-binding site: ratio of KD at the two sites on S100A1 dimer
# Experimental: All peptides were synthesized using […] peptide synthesis and their purity was determined to be >95% by high pressure liquid chromatography and mass spectrometry (Biosynthesis Inc., Lewisville, TX or GenScript, Piscataway, NJ). Three peptides derived from human RyR1 sequence were synthesized: CaMBD2, residues 3614‐3640, […]; CaMBD1, residues 1975‐1999, […]; and CaMBD3, residues 4303‐4326, […]. As they are internal peptides the C‐terminus was […] and N‐terminus was acetylated to neutralize the charged ends. The peptides stock were made in D6‐DMSO and their concentration were determined by quantitative amino acid analysis (Biosynthesis Inc., Lewisville, TX) and/or determined using the extinction coefficient for the methyl ester of N‐acetyl tryptophan, ε280 = 5600 cm^−1M^−1.
# Expression and purification (>95% by SDS‐PAGE) of recombinant human ^15N‐labeled S100A1 was performed as previous described (Melville et al. 2017b). The concentrations of S100A1 stock solutions were determined using the Bio‐Rad Protein Assay (Bio‐Rad Inc., Hercules, CA) using a known concentration of BSA as the standard. Concentrations are given in S100A1 monomer concentration except where indicated.
# Heat changes during the titration of each CaMBD peptide into Ca^2+‐S100A1 were measured using a VP‐ITC titration microcalorimeter (MicroCal, Inc., Northhampton, MA) as done previously (Wilder et al. 2003). All solutions were degassed under vacuum and equilibrated at 37°C prior to titration. For each titration the sample cell (1.4 mL) contained 10 mmol/L TES, pH 7.2, 15 mmol/L NaCl, and 10 mmol/L CaCl2, 0.5 mmol/L TCEP, <5% D6‐DMSO (from peptide stocks or equivalent D6‐DMSO added to controls), and 0.04 mmol/L CaMBD peptide, while the reference cell contained water. Upon equilibration, 0.20–0.35 mmol/L S100A1 (dimer concentration) prepared in the same buffer without peptide but equivalent D6‐DMSO was injected using the default injection rate with a time interval between each injection to allow the sample to return to baseline. The resulting titration curves were corrected for protein‐free buffer control.
# Images were collected and evaluated using the same settings and enhancing parameters so that all images could be directly compared. Line‐scan images were analyzed using LSM examiner (Carl Zeiss, Jena, DE). Calculation of AP‐induced Ca^2+ signals were conducted using Origin Pro 8 (OriginLab Corporation, Northampton, MA, USA) and SPSS for Windows ver. 24.0 (SPSS Inc., Chicago, IL). Summary data were reported as mean ± SD. Normal distribution of data was assessed using the Kolmogorov–Smirnov test. Unpaired two sample Student's t‐test was used to test for differences between the means of the indo 1‐resting values and peak AP‐induced Ca^2+ transients from two different samples. ITC results were background buffer subtracted and analyzed using the Origin for ITC software (MicroCal, Northampton, MA) and fit using two‐site fitting model (Freire et al. 1990). Differences were considered significant when P < 0.05.
# [2] = system: CaM; settings: ref Lau et al. 2014, cited from earlier work; for affinity sequence of CaM for the CaMBDs, in words: ITC data; for CaM binding, in words: isothermal calorimetry, rabbit RyR1 peptides
# Description: There is substantial evidence that CaM and S100A1 may bind to multiple sites within the RyR1. […] Given the affinity of S100A1 for the CaMBDs, it is likely that the observed RyR1 re ...
# [3] = biological target: RyR1 CaMBD3 peptide (site 2) (Homo sapiens); assay: ITC
# [4] = biological target: RyR1 CaMBD3 peptide (site 1) (Homo sapiens); assay: ITC
# [5] = biological target: RyR1 CaMBD2 peptide (site 2) (Homo sapiens); assay: ITC
# [6] = biological target: RyR1 CaMBD1 peptide (site 2) (Homo sapiens); assay: ITC
# [7] = biological target: RyR1 CaMBD2 peptide (site 1) (Homo sapiens); assay: ITC
# [8] = biological target: RyR1 CaMBD1 peptide (site 1) (Homo sapiens); assay: ITC
# [9] = system: RyR1; settings: in vitro FRET; ref Rebbeck et al. 2016; cited from earlier work
# Description: In fast‐type skeletal muscle the intracellular concentration of S100A1 was reported to be ~3 μmol/L (Haimoto and Kato 1987; Zimmer et al. 1991), with total intracellular concentration of CaM being about 5 μmol/L (Robertson et al. 1981).
# [10] = peptide-binding site 1, ITC VP-ITC, 10 mmol/L TES pH 7.2, 15 mmol/L NaCl, 10 mmol/L CaCl2, 0.5 mmol/L TCEP, <5% D6-DMSO, 0.04 mmol/L peptide in cell, 0.20-0.35 mmol/L S100A1 (dimer) injected
# [11] = peptide-binding site 1, ITC, pH 7.2, 10 mmol/L CaCl2
# [12] = peptide-binding site 2, ITC, pH 7.2, 10 mmol/L CaCl2
molecule,measurement,setting,value
CC[C@H](C)[C@H](NC(=O)[C@H](CC(C)C)NC(=O)[C@H](CC(C)C)NC(=O)CNC(=O)[C@H](Cc1ccc(O)cc1)NC(=O)[C@H](CCCNC(=N)N)NC(=O)[C@H](CO)NC(C)=O)C(=O)N[C@@H](CCCCN)C(=O)N[C@@H](C)C(=O)N[C@@H](Cc1ccccc1)C(=O)N[C@@H](CO)C(=O)N[C@@H](CCSC)C(=O)N[C@H](C(=O)N[C@@H](C)C(=O)N[C@@H](C)C(=O)N[C@@H](CCC(=O)O)C(=O)N[C@H](C(=O)N[C@@H](C)C(=O)N[C@@H](CCCNC(=N)N)C(=O)N[C@@H](CCCNC(=N)N)C(=O)N[C@H](C(=O)N[C@@H](CCCNC(=N)N)C(=O)N[C@@H](CCC(=O)O)C(=O)N[C@@H](Cc1ccccc1)C(=O)N[C@@H](CCCNC(=N)N)C(N)=O)[C@@H](C)O)[C@@H](C)O)[C@@H](C)O [CaMBD1] (Ac-SRYGLLIKAFSMTAAETARRTREFR-NH2),"S100A1 binding, in words",[1]; ITC,binds with different affinities; also recorded: weakest affinity
same,N (sites),[1]; [10],1.14 ± 0.10
same,Kd,[1]; [11],1.3 ± 0.284 µM
same,ΔG,[1]; [11],-8.4 ± 0.1 kcal/mol
same,ΔH,[1]; [11],-4.5 ± 0.7 kcal/mol
same,Kd,[1]; [12],21 µM
same,N (sites),[1]; [12],0.75 ± 0.07
same,ΔG,[1]; [12],-6.7 ± 0.2 kcal/mol
same,ΔH,[1]; [12],-10.8 ± 0.4 kcal/mol
same,difference in affinity between the tight and weak peptide-binding site,[1],16 fold
same,"affinity sequence of CaM for the CaMBDs, in words",[2],CaMBD2 > CaMBD3 > CaMBD1
CSCC[C@H](NC(=O)[C@H](CCCNC(=N)N)NC(=O)[C@H](Cc1ccccc1)NC(=O)[C@H](CS)NC(=O)[C@H](C)NC(=O)[C@@H](NC(=O)[C@@H](NC(=O)[C@H](C)NC(=O)[C@H](CCCNC(=N)N)NC(=O)[C@H](CCCNC(=N)N)NC(=O)[C@H](CCCNC(=N)N)NC(=O)[C@H](CCC(N)=O)NC(=O)[C@H](CCCCN)NC(=O)[C@H](CO)NC(=O)[C@H](CC(C)C)NC(=O)[C@H](CC(C)C)NC(=O)[C@H](CCCCN)NC(=O)[C@H](Cc1c[nH]cn1)NC(=O)[C@H](Cc1c[nH]c2ccccc12)NC(=O)[C@@H](NC(=O)[C@H](C)NC(=O)[C@H](CCCCN)NC(=O)[C@H](CCCCN)NC(=O)[C@H](CO)NC(=O)[C@H](CCCCN)NC(C)=O)C(C)C)C(C)C)C(C)C)C(=O)N[C@H](C(=O)N1CCC[C@H]1C(N)=O)[C@@H](C)O [CaMBD2] (Ac-KSKKAVWHKLLSKQRRRAVVACFRMTP-NH2),N (sites),[1]; [10],0.78 ± 0.09
same,Kd,[1]; [11],0.146 ± 0.0239 µM
same,ΔG,[1]; [11],-9.7 ± 0.1 kcal/mol
same,ΔH,[1]; [11],-11.4 ± 0.2 kcal/mol
same,Kd,[1]; [12],17 µM
same,N (sites),[1]; [12],0.51 ± 0.15
same,ΔG,[1]; [12],-6.8 ± 0.1 kcal/mol
same,ΔH,[1]; [12],-10.3 ± 3.0 kcal/mol
same,difference in affinity between the tight and weak peptide-binding site,[1],114 fold
same,"affinity sequence of CaM for the CaMBDs, in words",[2],CaMBD2 > CaMBD3 > CaMBD1
CC(=O)N[C@@H](CCCNC(=N)N)C(=O)N[C@@H](C)C(=O)N[C@@H](CC(C)C)C(=O)N[C@@H](CCCNC(=N)N)C(=O)NCC(=O)N[C@@H](CC(C)C)C(=O)N[C@@H](CO)C(=O)N[C@@H](Cc1ccc(O)cc1)C(=O)N[C@@H](CCCNC(=N)N)C(=O)N[C@@H](CO)C(=O)N[C@@H](CC(C)C)C(=O)N[C@@H](CCCNC(=N)N)C(=O)N[C@@H](CCCNC(=N)N)C(=O)N[C@@H](CCCNC(=N)N)C(=O)N[C@H](C(=O)N[C@@H](CCCNC(=N)N)C(=O)N[C@@H](CCCNC(=N)N)C(=O)N[C@@H](CC(C)C)C(=O)N[C@@H](CCCNC(=N)N)C(=O)N[C@@H](CCCNC(=N)N)C(=O)N[C@@H](CC(C)C)C(=O)N[C@H](C(=O)N[C@@H](C)C(=O)N[C@@H](CCCNC(=N)N)C(N)=O)[C@@H](C)O)C(C)C [CaMBD3] (Ac-RALRGLSYRSLRRRVRRLRRLTAR-NH2),"S100A1 binding, in words",[1]; ITC,binds with different affinities; also recorded: tightest S100A1 binding
same,N (sites),[1]; [10],1.79 ± 0.08
same,Kd,[1]; [11],0.0089 ± 0.011 µM
same,ΔG,[1]; [11],-11.9 ± 1.2 kcal/mol
same,ΔH,[1]; [11],-3.6 ± 0.7 kcal/mol
same,Kd,[1]; [12],6.7 µM
same,N (sites),[1]; [12],1.27 ± 0.07
same,ΔG,[1]; [12],-7.4 ± 0.2 kcal/mol
same,ΔH,[1]; [12],-6.1 ± 0.9 kcal/mol
same,difference in affinity between the tight and weak peptide-binding site,[1],755 fold
same,"affinity sequence of CaM for the CaMBDs, in words",[2],CaMBD2 > CaMBD3 > CaMBD1
"rCaMBD1: peptide from rabbit RyR1, residues 3614‐3640 (as printed), Lau et al. 2014 (KSKKAVWHKLLSKQRRRAVVACFRMTP; UniProt P11716 3614-3640, looked up, fragment) [reference compound]","CaM binding, in words",[2],CaM can bind
"rCaMBD2: peptide from rabbit RyR1, residues 1975‐1999 (as printed), Lau et al. 2014 (SRYALLMRAFTMSAAETARRTREFR; UniProt P11716 1975-1999, looked up, fragment) [reference compound]","CaM binding, in words",[2],CaM can bind
"rCaMBD3: peptide from rabbit RyR1, residues 4295‐4325, Lau et al. 2014 (RLAAAAARALRGLSYRSLRRRVRRLRRLTAR; UniProt P11716 4295-4325, looked up, fragment) [reference compound]","CaM binding, in words",[2],CaM can bind
B1,Kd,[3],6.7 µM
same,Kd,[4],0.0089 µM
same,Kd,[5],17 µM
same,Kd,[6],21 µM
same,Kd,[7],0.146 µM
same,Kd,[8],1.3 µM
B2,"S100A1 concentration required for RyR1 modulation, in words",[9],high unphysiological (micromolar) concentration
